Experimental data from PMC6958422 (Pharmaceuticals, 2019).

Legend:
hA2B AR = target: T1, hA2B AR (Homo sapiens, UniProt P29275); experiment: cAMP assay, stimulation of cAMP production in hA2B CHO cells (agonism); assay type: cell-based; conditions: for Emax at 1 µM: CHO, compound at 1µM, in comparison with NECA (1µM = 100%), read-out: Efficacy hA2B (cAMP assays) (converted); for EC50: hA2B CHO cells, means ± SEM of four assays
T1 construct: expressed in transfected cells; host or cells: CHO cells
T1 sequence (P29275 1-332): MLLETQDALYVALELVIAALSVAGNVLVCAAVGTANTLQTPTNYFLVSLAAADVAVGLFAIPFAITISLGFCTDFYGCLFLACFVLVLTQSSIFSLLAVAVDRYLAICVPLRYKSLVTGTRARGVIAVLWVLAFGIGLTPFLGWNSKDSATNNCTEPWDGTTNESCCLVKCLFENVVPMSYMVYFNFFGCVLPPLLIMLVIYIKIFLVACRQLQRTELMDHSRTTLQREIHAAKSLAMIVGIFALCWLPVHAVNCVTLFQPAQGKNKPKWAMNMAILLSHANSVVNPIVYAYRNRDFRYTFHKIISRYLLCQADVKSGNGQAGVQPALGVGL
Protocol: The amino-3,5-dicyanopyridines 1–20 were tested for their affinity at hA1, hA2A, and hA3 ARs, stably transfected in Chinese Hamster Ovary (CHO) cells, and were also studied as hA2B agonists by evaluating their stimulatory effect on cAMP production in CHO cells, stably expressing the hA2B AR.
(§1) CHO cells transfected with hA1, hA2A, hA2B, and hA3 ARs were grown adherently and maintained in Dulbecco’s modified Eagle’s medium (Sigma-Aldrich, Milan, Italy) with nutrient mixture F12, containing 10% fetal calf serum, penicillin (100 U/mL), streptomycin (100 μg/mL), l-glutamine (2 mM) and geneticin (G418; 0.2 mg/mL) at 37°C in 5% CO2/95% air until the use in cAMP assays. For membrane preparation, the culture medium was removed, and the cells were washed with phosphate-buffered saline and scraped off T75 flasks in ice-cold hypotonic buffer (5 mM Tris HCl, 1 mM EDTA, pH 7.4). The cell suspension was homogenized with a Polytron, centrifuged for 30 min at 40000 g at 4°C, and the resulting membrane pellet was used for competition binding experiments.
CHO cells transfected with hAR subtypes were washed with phosphate-buffered saline, detached with trypsin and centrifuged for 10 min at 200 g. Cells were seeded in 96-well white half-area microplate (Perkin Elmer, Boston, USA) in a stimulation buffer composed of Hank Balanced Salt Solution (Sigma-Aldrich, Milan, Italy), 5 mM HEPES, 0.5 mM Ro 20-1724, and 0.1% BSA. cAMP levels were then quantified by using the AlphaScreen cAMP Detection Kit (Perkin Elmer) following the manufacturer’s instructions. At the end of the experiments, plates were read with the Perkin Elmer EnSight Multimode Plate Reader.

hA1 AR = target: T2, hA1 AR (Homo sapiens, UniProt P30542); experiment: [3H]DPCPX competition binding to hA1 CHO cell membranes; conditions: for I% hA1: percentage of inhibition at 1µM, [3H]DPCPX
T2 construct: expressed in transfected cells; host or cells: CHO cells
T2 sequence (P30542 1-326): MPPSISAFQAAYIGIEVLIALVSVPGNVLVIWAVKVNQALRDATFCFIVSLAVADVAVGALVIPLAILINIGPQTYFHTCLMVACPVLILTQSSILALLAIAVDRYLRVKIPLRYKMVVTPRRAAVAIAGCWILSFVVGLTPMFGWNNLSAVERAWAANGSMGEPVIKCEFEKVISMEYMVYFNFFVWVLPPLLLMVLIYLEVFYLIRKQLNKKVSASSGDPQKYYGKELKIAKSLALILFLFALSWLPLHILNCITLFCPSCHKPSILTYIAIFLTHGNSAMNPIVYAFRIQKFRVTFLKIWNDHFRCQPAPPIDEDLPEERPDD
Protocol: as §1
(§2) All synthesized compounds have been tested for their affinity to hA1, hA2A, and hA3 ARs. Competition experiments to hA1 ARs were carried out incubating 1 nM [^3H]-8-cyclopentyl-1,3-dipropylxanthine ([^3H]-DPCPX) with membrane suspension (50 μg of protein/100 μL) and different concentrations of the examined compounds at 25°C for 90 min in 50 mM Tris HCl, pH 7.4. […] Inhibition experiments to hA2A ARs were performed incubating the radioligand [^3H]-ZM241385 (4-(2-[7-Amino-2-(2-furyl)[1,2,4]triazolo[2,3-a][1,3,5]triazin-5-ylamino]ethyl)phenol) (1 nM) with the membrane suspension (50 μg of protein/100 μL) and different concentrations of the examined compounds for 60 min at 4°C in 50 mM Tris HCl (pH 7.4), 10 mM MgCl2. Non-specific binding was determined in the presence of ZM241385 (1 μM) and was about 20% of the total binding. Competition binding experiments to A3 ARs were carried out incubating the membrane suspension (50 μg of protein/100 μL) with 0.5 nM [^125I]-N^6-(4-aminobenzyl)-N-methylcarboxamidoadenosine ([^125I]-ABMECA) in the presence of different concentration of the examined compounds for an incubation time of 120 min at 4°C in 50 mM Tris HCl (pH 7.4), 10 mM MgCl2, and 1 mM EDTA. Non-specific binding was defined as binding in the presence of 1μM ABMECA and was always < 10% of the total binding. Bound and free radioactivity were separated by filtering the assay mixture through Whatman GF/B glass fiber filters using a Brandel cell harvester (Brandel Instruments, Unterföhring, Germany). The filter bound radioactivity was counted by Packard Tri Carb 2810 TR scintillation counter (Perkin Elmer, Boston, MA, USA).
(§3) The protein concentration was determined according to a Bio-Rad method with bovine albumin as a standard reference. Inhibitory binding constant (Ki) values were calculated from those of IC50 according to Cheng & Prusoff equation Ki = IC50/(1+[C*]/KD*), where [C*] is the concentration of the radioligand and KD* its dissociation constant. Ki and IC50 values were calculated by non-linear regression analysis using the equation for a sigmoid concentration-response curve (Graph-PAD Prism, San Diego, CA, USA).

hA2A AR = target: T3, hA2A AR (Homo sapiens, UniProt P29274); experiment: [3H]ZM241385 competition binding to hA2A CHO cell membranes; conditions: for I% hA2A: percentage of inhibition at 1µM, [3H]ZM241385; for Ki: [3H]ZM241385, hA2A CHO cells, means ± SEM
T3 construct: expressed in transfected cells; host or cells: CHO cells
Protocol: as §1, §2, §3

hA3 AR = target: T4, hA3 AR (Homo sapiens, UniProt P0DMS8); experiment: [125I]AB-MECA competition binding to hA3 CHO cell membranes; conditions: for inhibition at 1 µM: percentage of inhibition at 1µM; for Ki: hA3 CHO cells, means ± SEM
T4 construct: expressed in transfected cells; host or cells: CHO cells
T4 sequence (P0DMS8 1-318): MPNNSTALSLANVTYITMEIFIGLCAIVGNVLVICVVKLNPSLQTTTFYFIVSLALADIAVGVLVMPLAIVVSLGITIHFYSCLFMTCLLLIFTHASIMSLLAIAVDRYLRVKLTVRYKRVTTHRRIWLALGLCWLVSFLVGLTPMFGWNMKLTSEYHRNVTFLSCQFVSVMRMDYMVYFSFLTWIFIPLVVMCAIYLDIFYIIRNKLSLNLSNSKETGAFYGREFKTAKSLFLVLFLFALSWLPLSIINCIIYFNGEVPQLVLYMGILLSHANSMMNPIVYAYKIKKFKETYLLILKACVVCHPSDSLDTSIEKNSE
Protocol: as §1, §2, §3

T3 sequence (P29274 whole entry): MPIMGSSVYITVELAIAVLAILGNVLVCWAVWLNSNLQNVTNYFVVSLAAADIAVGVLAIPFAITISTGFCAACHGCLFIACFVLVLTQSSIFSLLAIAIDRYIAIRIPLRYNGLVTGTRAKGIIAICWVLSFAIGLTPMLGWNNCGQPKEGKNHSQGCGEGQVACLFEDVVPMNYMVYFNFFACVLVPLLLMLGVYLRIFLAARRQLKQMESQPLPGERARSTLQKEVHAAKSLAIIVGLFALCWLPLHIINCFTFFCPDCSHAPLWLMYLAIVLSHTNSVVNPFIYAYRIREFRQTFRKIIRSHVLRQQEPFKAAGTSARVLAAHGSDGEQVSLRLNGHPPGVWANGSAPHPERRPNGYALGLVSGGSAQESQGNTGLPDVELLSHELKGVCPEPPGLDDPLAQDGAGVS

SMILES | Emax at 1 µM (hA2B AR) [%] | EC50 (hA2B AR) [nM] | I% hA1 (hA1 AR) [%] | I% hA2A (hA2A AR) [%] | inhibition at 1 µM (hA3 AR) [%] | melting point | Ki (hA1 AR) [nM] | Ki (hA2A AR) [nM] | Ki (hA3 AR) [nM] | Pharmacological profile at hA2BAR (hA2B AR; cAMP assay)
N#Cc1c(N)nc(SCc2ncc[nH]2)c(C#N)c1-c1ccc(C(F)(F)F)cc1 [Compound 9, 2-Amino-6-[(1H-imidazol-2-ylmethyl)sulfanyl]-4-[4-(trifluoromethyl)phenyl]pyridine-3,5-dicarbonitrile] | 4 | > 1000 |  | 32 | 21 | 233 to 235 °C (dec.) | 419 ± 32 |  |  | 
Cc1ccc(-c2c(C#N)c(N)nc(SCc3ncc[nH]3)c2C#N)cc1 [Compound 10, 2-[(1H-Imidazol-2-il)metiltio]-6-ammino-4(4-metilfenil)piridina-3,5-dicarbonitrile] | 78 | 78 ± 6 |  |  |  | 259 to 261 °C (dec.) | 5.32 ± 0.42 | 47 ± 4 | 212 ± 19 | 
COC(=O)CSc1nc(N)c(C#N)c(-c2ccc(OC)cc2)c1C#N [Compound 20, Methyl{[6-amino-3,5-dicyano-4-(4-methoxyphenyl)pyridin-2-yl]sulfanyl}acetate] | 1 | > 1000 |  | 1 | 5 | 218 to 220 °C | 987 ± 81 |  |  | 
Cc1c(C#N)c(N)nc(SCc2ncc[nH]2)c1C#N [Compound 13, 2-Amino-6-[(1H-imidazol-2-ylmethyl)sulfanyl]-4-methylpyridine-3,5-dicarbonitrile] | 1 | > 1000 |  |  |  | 267 to 269 °C (dec.) | 74 ± 8 | 331 ± 32 | 510 ± 53 | 
N#Cc1c(N)nc(SCc2ncc[nH]2)c(C#N)c1-c1ccc(Cl)cc1 [Compound 7, 2-Amino-4-(4-chlorophenyl)-6-[(1H-imidazol-2-ylmethyl)sulfanyl]pyridine-3,5-dicarbonitrile] | 32 | 109 ± 12 |  |  |  | 229 to 231 °C (dec.) | 30 ± 4 | 865 ± 68 | 850 ± 62 | 
C=C(C)COc1ccc(-c2c(C#N)c(N)nc(SCc3ncc[nH]3)c2C#N)cc1 [Compound 4, 2-Amino-6-[(1H-imidazol-2-ylmethyl)sulfanyl]-4-{4-[(2-methylprop-2-en-1-yl)oxy]phenyl} pyridine-3,5-dicarbonitrile] | 14 | > 1000 |  | 1 | 8 | 224 to 226 °C | 77 ± 6 |  |  | 
N#Cc1c(N)nc(SCc2ncc[nH]2)c(C#N)c1-c1ccc(OCC2CCC2)cc1 [Compound 1, 2-Amino-4-[4-(cyclobutylmethoxy)phenyl]-6-[(1H-imidazol-2-ylmethyl)sulfanyl]pyridine-3,5-dicarbonitrile] | 12 | > 1000 | 25 | 4 |  | 214 to 216 °C |  |  | 574 ± 46 | 
COc1ccc(-c2c(C#N)c(N)nc(NCCO)c2C#N)cc1 [Compound 19, 2-Amino-6-[(2-hydroxyethyl)amino]-4-(4-methoxyphenyl)pyridine-3,5-dicarbonitrile] | 1 | > 1000 | 14 | 2 | 15 | 248 to 250 °C |  |  |  | 
CC(=O)Nc1ccc(-c2c(C#N)c(N)nc(SCc3ncc[nH]3)c2C#N)cc1 [Compound 6, N-(4-{2-Amino-3,5-dicyano-6-[(1H-imidazol-2-ylmethyl)sulfanyl]pyridin-4-yl}phenyl) acetamide] | 100 | 12 ± 1 |  |  |  | 275 to 278 °C | 83 ± 7 | 38 ± 3 | 48 ± 4 | full agonist profile

Now from value to molecule:

Emax at 1 µM (hA2B AR) [%] | EC50 (hA2B AR) [nM] | I% hA1 (hA1 AR) [%] | I% hA2A (hA2A AR) [%] | inhibition at 1 µM (hA3 AR) [%] | melting point | Ki (hA1 AR) [nM] | Ki (hA2A AR) [nM] | Ki (hA3 AR) [nM] | Pharmacological profile at hA2BAR (hA2B AR; cAMP assay) | SMILES
1 | > 1000 | 15 | 16 | 5 | 244 to 246 °C |  |  |  |  | N#Cc1cnc(N)c(C#N)c1-c1ccccc1 [Compound 18, 2-amino-4-phenylpyridine-3,5-dicarbonitrile]
44 | 260 ± 24 | 31 | 8 | 1 | 246 to 248 °C (dec.) |  |  |  |  | N#Cc1c(N)nc(SCc2ncc[nH]2)c(C#N)c1Cc1ccccc1 [Compound 12, 2-Amino-4-benzyl-6-[(1H-imidazol-2-ylmethyl)sulfanyl]pyridine-3,5-dicarbonitrile]
1 | > 1000 | 1 | 1 | 1 |  |  |  |  |  | COc1ccc(CCNc2nc(N)c(C#N)c(-c3ccccc3)c2C#N)cc1 [Compound 16, 2-Amino-6-{[2-(4-methoxyphenyl)ethyl]amino}-4-phenylpyridine-3,5-dicarbonitrile]
1 | > 1000 | 27 | 1 | 25 | 253 to 255 °C |  |  |  |  | N#Cc1c(N)nc(-n2ccnc2)c(C#N)c1-c1ccccc1 [Compound 17, 2-Amino-6-(1H-imidazol-1-yl)-4-phenylpyridine-3,5-dicarbonitrile]
1 | > 1000 |  | 1 | 1 | 230 to 231 °C | 943 ± 87 |  |  |  | N#Cc1c(N)nc(NCCO)c(C#N)c1-c1ccccc1 [Compound 15, 2-Amino-6-[(2-hydroxyethyl)amino]-4-phenylpyridine-3,5-dicarbonitrile]
